Entries after “also recorded” stand apart in the source; their conditions may differ. Square brackets hold non-standard residues; d marks the D form. Peptide text beside a SMILES is read from it. d2Nal = N[C@H](Cc1ccc2ccccc2c1)C(=O)O
Columns and labels:
[1] = test system: rat model of acetic acid induced bladder irritation; assay: Rat model of acetic acid induced bladder irritation (Example 2); assay type: in vivo; details: for intercontraction interval (ICI): Example 2, FIG. 1, i.v. after acetic acid, Aspirin 10 mg/kg; for intercontraction interval (ICI) / bladder capacity: Icatibant 0.2, 1 and 5 mg/kg, Oxybutynin 1 mg/kg, R-715 1 mg/kg; for bladder capacity: Example 2, FIG. 2, i.v. after acetic acid, aspirin 10 mg/kg; for bladder capacity, pre-treatment: Example 2, pre-treatment prior to acetic acid application; for micturition pressure: Example 2, FIG. 3, after start of acetic acid infusion
Description: Groups of 5 female Wistar rats weighing 250 to 300 g anesthetized with urethane 1.2 g/kg i.p. in 5 ml/kg were used. A polyethylene catheter (PE50) was implanted into the bladder for saline or acetic acid infusion through a 3 way stopcock to which a pressure transducer is connected for measurements of bladder pressure (mm Hg). Saline at 37° C. was infused into the bladder at a constant rate until cystometrography stabilized in 60 minutes. Subsequently, 0.2% acetic acid was infused into the urinary bladder. […] The following parameters were measured continuously during baseline and for up to 1 hour post-dosing: bladder capacity (μl), intercontraction interval (ICI, in minutes, time between two voiding cycles), micturition pressure (mm Hg), micturition volume (ml, derived from the weight of excreted urine measured by a balance placed below the rat) and blood pressure (mm Hg). [table] Paired Student's test was applied for comparison between the time before (baseline) and after test substance or with vehicle treatment. To signify differences between test substance and vehicle control groups, Dunnett's test or unpair Student t test was used. Differences are considered significant at P<0.05 level.

[2] = test system: rat model of acetic acid induced bladder irritation; assay: Rat model of acetic acid induced bladder irritation (Example 1); assay type: in vivo
Description: Groups of 5 female Wistar rats weighing 250 to 300 g anesthetized with urethane 1.2 g/kg i.p. in 5 ml/kg were used. A polyethylene catheter (PE50) was implanted into the bladder for saline or acetic acid infusion through a 3 way stopcock to which a pressure transducer is connected for measurements of bladder pressure (mm Hg). Saline at 37° C. was infused into the bladder at a constant rate until cystometrography becomes stable. Thereafter, instillation of 0.2% acetic acid into the urinary bladder was initiated. […] The following parameters were measured continuously for 1 hour after treatment was started: intercontraction interval (ICI, minutes, defined as the time between two voiding cycles), threshold pressure (mmHg), bladder capacity (ml), micturition volume (ml), and micturition pressure (mmHg). Micturition volume is derived from the weight of excreted urine measured by a balance placed below the rat.
Paired Student's test was applied for comparison between the time before and after test substance or with vehicle treatment. To signify differences between test substance and vehicle control group, Dunnett's test was used. Differences are considered significant at P<0.05.

guinea pig B2 receptors = molecular target: T1, guinea pig B2 receptors (Cavia porcellus, UniProt O70526); details: human INT407 cells; cited from earlier work
T1 construct: host or cells: human INT407 cells
T1 sequence (O70526 1-372): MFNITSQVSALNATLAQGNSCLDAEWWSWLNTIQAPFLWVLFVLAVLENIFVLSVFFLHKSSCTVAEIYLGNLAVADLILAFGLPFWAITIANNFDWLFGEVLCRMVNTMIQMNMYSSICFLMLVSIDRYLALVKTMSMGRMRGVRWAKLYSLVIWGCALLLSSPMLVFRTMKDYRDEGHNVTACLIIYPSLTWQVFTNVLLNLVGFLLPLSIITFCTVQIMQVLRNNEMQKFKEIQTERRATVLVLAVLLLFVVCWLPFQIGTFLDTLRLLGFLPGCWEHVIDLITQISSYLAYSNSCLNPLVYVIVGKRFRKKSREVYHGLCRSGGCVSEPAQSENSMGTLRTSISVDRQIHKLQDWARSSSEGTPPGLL

Row | Compound | intercontraction interval (ICI) [1] | bladder capacity [1] | bladder capacity, pre-treatment [1] | micturition pressure [1] | further results
1 | CC(=O)Oc1ccccc1C(=O)O [Aspirin] | increases | increases the bladder capacity until reaching the baseline levels | – | – | –
2 | COc1cc(CNC(=O)CCCC/C=C/C(C)C)ccc1O [Capsaicin] | – | – | completely blocks the acetic acid induced decrease of bladder capacity | – | intercontraction interval (ICI), Capsaicin pre-treatment ([1]; Example 2, 25 mg/kg and 50 mg/kg s.c., 4 days prior to experiment): inhibition of the acetic acid—triggered ICI—decrease
3 | NC(N)=NCCC[C@@H](N)C(=O)N[C@@H](CCCN=C(N)N)C(=O)N1CCC[C@H]1C(=O)N1C[C@H](O)C[C@H]1C(=O)NCC(=O)N[C@@H](Cc1cccs1)C(=O)N[C@@H](CO)C(=O)N1Cc2ccccc2C[C@@H]1C(=O)N1[C@H](C(=O)N[C@@H](CCCN=C(N)N)C(=O)O)C[C@@H]2CCCC[C@@H]21 [Icatibant, H-D-Arg-Arg-Pro-Hyp-Gly-Thi-Ser-D-Tic-Oic-Arg-OH] | increases; also recorded: doubling | increases the bladder capacity until reaching the baseline levels; also recorded: tripling | completely blocks the acetic acid induced decrease of bladder capacity | without any change | intercontraction interval (ICI) ([2]; Example 1, FIG. 1, in comparison to the vehicle group, i.v. after start of acetic acid infusion): dose-dependently increases; bladder capacity ([2]; Example 1, FIG. 2, in comparison to the vehicle group, i.v. after start of acetic acid infusion): dose-dependently increases; micturition pressure ([2]; Example 1, FIG. 3, i.v. after start of acetic acid infusion): no decrease; bladder capacity ([2]; Example 1 summary, 1 mg/kg): doubling; interval between two micturition contractions ([2]; Example 1 summary, 1 mg/kg): doubling; micturition pressure ([2]; Example 1 summary, 1 mg/kg): without any change; reversal of acetic acid induced detrusor instabilities ([2]; rat, 1 mg/kg i.v.): able to reverse; intercontraction interval (ICI), pre-treatment ([1]; Example 2, 1 mg/kg i.v. 30 minutes prior to intravesical acetic acid infusion): strongly inhibits decrease of ICI; lowest dose at which maximal effects on ICI were reached ([1]; Example 2, i.v. after acetic acid): 0.2 mg/kg; acetic acid induced bladder dysfunction, pre-treatment ([1]; Example 2 summary, pre-treatment before acetic acid): complete inhibition; inhibition of BK-mediated inositol phosphate generation (guinea pig B2 receptors): efficiently inhibited
4 | CCN(CC)CC#CCOC(=O)C(O)(c1ccccc1)C1CCCCC1 (stereo not drawn) [Oxybutynin, 4-diethylaminio-2-butynyl phenylcyclohexyglycolate] | if any, only slight positive effects | no significant effects | – | – | –
5 | CC[C@H](C)[C@H](NC(=O)[C@@H](Cc1ccc2ccccc2c1)NC(=O)[C@H](CO)NC(=O)[C@H](Cc1ccccc1)NC(=O)CNC(=O)[C@@H]1CCCN1C(=O)[C@@H]1CCCN1C(=O)[C@H](CCCN=C(N)N)NC(=O)[C@H](CCCCN)NC(C)=O)C(=O)O [R-715, H-Ac-Lys-Arg-Pro-Pro-Gly-Phe-Ser-D-Nal-Ile-OH] (Ac-KRPPGFS[d2Nal]I-OH) | – | – | – | without any change | –
6 | CC[C@H](C)[C@H](NC(=O)[C@@H](Cc1ccc2ccccc2c1)NC(=O)[C@H](CO)NC(=O)[C@H](Cc1ccccc1)NC(=O)CNC(=O)[C@@H]1CCCN1C(=O)[C@@H]1CCCN1C(=O)[C@H](CCCNC(=N)N)NC(=O)[C@H](CCCCN)NC(C)=O)C(=O)O [R-715, H-Ac-Lys-Arg-Pro-Pro-Gly-Phe-Ser-D-Nal-Ile-OH] (Ac-KRPPGFS[d2Nal]I-OH) | becomes effective over the study time as well but positive effects on ICI are delayed; also recorded: doubling | increases the bladder capacity until reaching the baseline levels; also recorded: tripling | – | – | –

From US20080221039A1, “Kinin Antagonists For Treating Bladder Dysfunction” (priority 2005, published 2008)
